Earlier results on two compounds are cited in patent US20080317753A1, “SELECTING PATIENTS FOR THERAPY WITH A HER INHIBITOR” (GENENTECH, INC., priority 2004, published 2008).

Counter-ions that a name gives are not always drawn.

The conditions of data set [1]: combined with gemcitabine in several combinations of different chemotherapies, phase II trials.
Data set [2] deals with HER2-overexpressing metastatic breast cancers. The settings on record: patients with HER2-overexpressing metastatic breast cancers with extensive prior anti-cancer therapy.
The conditions of data set [3]: single agent.

In the case of “trastuzumab: recombinant humanized version of murine HER2 antibody 4D5; light and heavy chain sequences SEQ ID NOS. 15 and 16”, the tolerability result in data set [1] was “well tolerated with no observed cardiac or unexpected toxicities”. In data set [2], the clinical activity result is reported as “clinically active”. On to `Nc1ccn([C@@H]2O[C@H](CO)[C@@H](O)C2(F)F)c(=O)n1` [gemcitabine, 2′-deoxy-2′,2′-difluorocytidine monohydrochloride (b-isomer)], for which, in data set [3], the “nausea and vomiting, combined incidence” value is 69%.
